Where a SMILES comes first, the peptide text is derived from it. [ ]: non-standard residue; d: D form. The star is where a group is joined. Dihydrocaffeoyl = O=C(CCc1ccc(O)c(O)c1)*; Benzoyl(2-Ph) = O=C(c1ccccc1-c1ccccc1)*; Desaminotyrosyl = O=C(CCc1ccc(O)cc1)*; Hydrocinnamoyl = O=C(CCc1ccccc1)*; N(Me)CH2CH2Ph = CN(CCc1ccccc1)*; Pentanoyl(4-Me) = CC(C)CCC(=O)*; O(2S-octyl) = CCCCCC[C@H](C)O*; NHPhenethyl = c1ccc(CCN*)cc1; NMeV = CN[C@H](C(=O)O)C(C)C; Morpholide = C1CN(*)CCO1; Pyrrolidide = C1CCN(*)C1; NiPr2 = CC(C)N(C(C)C)*; X1 = CCCCCC[C@@H](C)O*; X3 = c1ccc(CCCO*)cc1; X8 = CN(CCc1ccccn1)*; Bz = O=C(c1ccccc1)*; NHPh = c1ccc(N*)cc1; N(Me)OMe = CON(C)*; NEt2 = CCN(CC)*
Target: HSV-1 ribonucleotide reductase (Human herpesvirus 1, UniProt P08543)
Experiment: biochemical
Source text: Inhibition of Herpes Simplex Virus (HSV, type 1) Ribonucleotide Reductase
• a) Preparation of Enzyme HSV-1 ribonucleotide reductase (partially purified) was obtained from quiescent BHK-21/C13 cells infected with strain F HSV-1 virus at 10 plaque forming units/cell as described by E.A. Cohen et al., J. Gen. […] The number of units of the enzyme preparation used in each assay was constant, based on the specific activity of the enzyme preparation.

HSV-1 ribonucleotide reductase, sequence (P08543 whole entry): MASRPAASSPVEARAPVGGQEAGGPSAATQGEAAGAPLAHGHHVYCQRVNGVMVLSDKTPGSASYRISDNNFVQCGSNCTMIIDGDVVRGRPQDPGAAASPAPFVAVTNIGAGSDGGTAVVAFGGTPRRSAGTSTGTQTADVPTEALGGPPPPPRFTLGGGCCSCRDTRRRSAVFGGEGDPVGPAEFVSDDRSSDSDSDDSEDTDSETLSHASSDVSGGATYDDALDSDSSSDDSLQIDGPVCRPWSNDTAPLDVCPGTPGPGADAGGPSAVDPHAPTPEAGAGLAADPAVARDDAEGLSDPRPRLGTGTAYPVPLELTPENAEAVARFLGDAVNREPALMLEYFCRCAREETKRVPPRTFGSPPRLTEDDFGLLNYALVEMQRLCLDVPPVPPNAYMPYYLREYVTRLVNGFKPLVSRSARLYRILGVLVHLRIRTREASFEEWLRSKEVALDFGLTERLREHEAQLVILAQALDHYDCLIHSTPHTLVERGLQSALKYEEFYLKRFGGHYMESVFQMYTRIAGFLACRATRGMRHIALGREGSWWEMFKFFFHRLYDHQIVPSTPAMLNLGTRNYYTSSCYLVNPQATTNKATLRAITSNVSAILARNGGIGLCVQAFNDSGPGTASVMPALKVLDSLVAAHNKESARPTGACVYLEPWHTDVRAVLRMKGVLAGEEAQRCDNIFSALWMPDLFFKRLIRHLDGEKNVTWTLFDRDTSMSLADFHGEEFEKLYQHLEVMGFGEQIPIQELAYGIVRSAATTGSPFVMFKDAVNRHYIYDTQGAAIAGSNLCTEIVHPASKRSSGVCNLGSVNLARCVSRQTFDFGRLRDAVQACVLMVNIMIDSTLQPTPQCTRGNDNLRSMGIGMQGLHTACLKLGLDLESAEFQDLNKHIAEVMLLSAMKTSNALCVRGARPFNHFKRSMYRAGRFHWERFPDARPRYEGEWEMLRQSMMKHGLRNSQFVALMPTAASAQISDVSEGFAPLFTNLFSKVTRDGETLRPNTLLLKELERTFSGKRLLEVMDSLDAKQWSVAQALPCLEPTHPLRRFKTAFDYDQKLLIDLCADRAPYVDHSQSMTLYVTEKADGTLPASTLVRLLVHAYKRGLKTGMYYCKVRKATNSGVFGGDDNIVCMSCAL

Q: How did the IC50 turn out when `CCCCCC[C@H](C)OC(=O)C[C@H](NC(=O)[C@@H](NC(=O)[C@H](C(C)C)N(C)C(=O)CCc1ccccc1)[C@@H](C)CC)C(=O)N[C@@H](CC(=O)O)C(=O)N[C@@H](CC(C)C)C(=O)O` [Entry 1] (Hydrocinnamoyl-[NMeV]ID(O(2S-octyl))DL-OH) was run?
A: 700 nM

Q: Which IC50 does the source give for `CCCCCC[C@@H](C)OC(=O)C[C@H](NC(=O)[C@@H](NC(=O)[C@H](C(C)C)N(C)C(=O)CCc1ccccc1)[C@@H](C)CC)C(=O)N[C@@H](CC(=O)O)C(=O)N[C@@H](CC(C)C)C(=O)O` [Entry 2] (Hydrocinnamoyl-[NMeV]ID(X1)DL-OH) here?
A: 700 nM

Q: Which IC50 does the source give for `CC[C@H](C)[C@H](NC(=O)[C@H](C(C)C)N(C)C(=O)CCc1ccccc1)C(=O)N[C@@H](CC(=O)N(C)C)C(=O)N[C@@H](CC(=O)O)C(=O)N[C@@H](CC(C)C)C(=O)O` [Entry 3] (Hydrocinnamoyl-[NMeV]ID(NMe2)DL-OH) here?
A: 190 nM

Q: How did the IC50 turn out when `CC[C@H](C)[C@H](NC(=O)[C@H](C(C)C)N(C)C(=O)CCc1ccccc1)C(=O)N[C@@H](CC(=O)N(CC)CC)C(=O)N[C@@H](CC(=O)O)C(=O)N[C@@H](CC(C)C)C(=O)O` [Entry 4] (Hydrocinnamoyl-[NMeV]ID(NEt2)DL-OH) was run?
A: 260 nM

Q: Which IC50 does the source give for `CC[C@H](C)[C@H](NC(=O)[C@H](C(C)C)N(C)C(=O)CCc1ccccc1)C(=O)N[C@@H](CC(=O)N(C(C)C)C(C)C)C(=O)N[C@@H](CC(=O)O)C(=O)N[C@@H](CC(C)C)C(=O)O` [Entry 5] (Hydrocinnamoyl-[NMeV]ID(NiPr2)DL-OH) here?
A: 250 nM

Q: Which IC50 does the source give for `CC[C@H](C)[C@H](NC(=O)[C@H](C(C)C)N(C)C(=O)CCc1ccccc1)C(=O)N[C@@H](CC(=O)N1CCCC1)C(=O)N[C@@H](CC(=O)O)C(=O)N[C@@H](CC(C)C)C(=O)O` [Entry 6] (Hydrocinnamoyl-[NMeV]ID(Pyrrolidide)DL-OH) here?
A: 110 nM

Q: With `CC[C@H](C)[C@H](NC(=O)[C@H](C(C)C)N(C)C(=O)CCc1ccccc1)C(=O)N[C@@H](CC(=O)N1CCOCC1)C(=O)N[C@@H](CC(=O)O)C(=O)N[C@@H](CC(C)C)C(=O)O` [Entry 7] (Hydrocinnamoyl-[NMeV]ID(Morpholide)DL-OH) as the molecule, how does the IC50 read?
A: 180 nM

Q: With `CC[C@H](C)[C@H](NC(=O)[C@H](C(C)C)N(C)C(=O)CCc1ccccc1)C(=O)N[C@@H](CC(=O)N(C)OC)C(=O)N[C@@H](CC(=O)O)C(=O)N[C@@H](CC(C)C)C(=O)O` [Entry 8] (Hydrocinnamoyl-[NMeV]ID(N(Me)OMe)DL-OH) as the molecule, how does the IC50 read?
A: 190 nM

Q: For `CC[C@H](C)[C@H](NC(=O)[C@H](C(C)C)N(C)C(=O)CCc1ccc(O)cc1)C(=O)N[C@@H](CC(=O)OCCCc1ccccc1)C(=O)N[C@@H](CC(=O)O)C(=O)N[C@@H](CC(C)C)C(=O)O` [Entry 9] (Desaminotyrosyl-[NMeV]ID(X3)DL-OH), which IC50 is on record?
A: 650 nM

Q: How did the IC50 turn out when `CC[C@H](C)[C@H](NC(=O)[C@H](C(C)C)N(C)C(=O)CCc1ccc(O)cc1)C(=O)N[C@@H](CC(=O)Nc1ccccc1)C(=O)N[C@@H](CC(=O)O)C(=O)N[C@@H](CC(C)C)C(=O)O` [Entry 10] (Desaminotyrosyl-[NMeV]ID(NHPh)DL-OH) was run?
A: 1600 nM

Q: How did the IC50 turn out when `CC[C@H](C)[C@H](NC(=O)[C@H](C(C)C)N(C)C(=O)CCc1ccc(O)cc1)C(=O)N[C@@H](CC(=O)NCCc1ccccc1)C(=O)N[C@@H](CC(=O)O)C(=O)N[C@@H](CC(C)C)C(=O)O` [Entry 11] (Desaminotyrosyl-[NMeV]ID(NHPhenethyl)DL-OH) was run?
A: 510 nM

Q: `CC[C@H](C)[C@H](NC(=O)[C@H](C(C)C)N(C)C(=O)CCc1ccc(O)cc1)C(=O)N[C@@H](CC(=O)N(C)C)C(=O)N[C@@H](CC(=O)O)C(=O)N[C@@H](CC(C)C)C(=O)O` [Entry 12] (Desaminotyrosyl-[NMeV]ID(NMe2)DL-OH) was tested. Which IC50 did it give?
A: 90 nM

Q: `CC[C@H](C)[C@H](NC(=O)[C@H](C(C)C)N(C)C(=O)CCc1ccc(O)cc1)C(=O)N[C@@H](CC(=O)N(CC)CC)C(=O)N[C@@H](CC(=O)O)C(=O)N[C@@H](CC(C)C)C(=O)O` [Entry 13, DAT-N-Me-Val-Ile-Asp(NEt₂)-Asp-Leu-OH] (Desaminotyrosyl-[NMeV]ID(NEt2)DL-OH) was tested. Which IC50 did it give?
A: 270 nM

Q: With `CC[C@H](C)[C@H](NC(=O)[C@H](C(C)C)N(C)C(=O)CCc1ccc(O)cc1)C(=O)N[C@@H](CC(=O)N(C)CCc1ccccc1)C(=O)N[C@@H](CC(=O)O)C(=O)N[C@@H](CC(C)C)C(=O)O` [Entry 14] (Desaminotyrosyl-[NMeV]ID(N(Me)CH2CH2Ph)DL-OH) as the molecule, how does the IC50 read?
A: 380 nM

Q: How did the IC50 turn out when `CC[C@H](C)[C@H](NC(=O)[C@H](C(C)C)N(C)C(=O)CCc1ccc(O)cc1)C(=O)N[C@@H](CC(=O)N(C)CCc1ccccn1)C(=O)N[C@@H](CC(=O)O)C(=O)N[C@@H](CC(C)C)C(=O)O` [Entry 15] (Desaminotyrosyl-[NMeV]ID(X8)DL-OH) was run?
A: 290 nM

Q: How did the IC50 turn out when `CC[C@H](C)[C@H](NC(=O)[C@H](C(C)C)N(C)C(=O)CCc1ccc(O)cc1)C(=O)N[C@@H](CC(=O)N1CCOCC1)C(=O)N[C@@H](CC(=O)O)C(=O)N[C@@H](CC(C)C)C(=O)O` [Entry 16] (Desaminotyrosyl-[NMeV]ID(Morpholide)DL-OH) was run?
A: 370 nM

Q: With `CC[C@H](C)[C@H](NC(=O)[C@@H](NC(=O)CCc1ccc(O)cc1)C(C)C)C(=O)N[C@@H](CC(=O)NCCc1ccccc1)C(=O)N[C@@H](CC(=O)O)C(=O)N[C@@H](CC(C)C)C(=O)O` [Entry 17] (Desaminotyrosyl-VID(NHPhenethyl)DL-OH) as the molecule, how does the IC50 read?
A: 1700 nM

Q: Which IC50 does the source give for `CCNC(=O)C[C@H](NC(=O)[C@@H](NC(=O)[C@@H](NC(=O)CCc1ccc(O)cc1)C(C)C)[C@@H](C)CC)C(=O)N[C@@H](CC(=O)O)C(=O)N[C@@H](CC(C)C)C(=O)O` [Entry 18] (Desaminotyrosyl-VID(NHEt)DL-OH) here?
A: 1750 nM

Q: Which IC50 does the source give for `CC[C@H](C)[C@H](NC(=O)[C@@H](NC(=O)CCc1ccc(O)cc1)C(C)C)C(=O)N[C@@H](CC(=O)N(CC)CC)C(=O)N[C@@H](CC(=O)O)C(=O)N[C@@H](CC(C)C)C(=O)O` [Entry 19] (Desaminotyrosyl-VID(NEt2)DL-OH) here?
A: 560 nM

Q: How did the IC50 turn out when `CC[C@H](C)[C@H](NC(=O)[C@@H](NC(=O)CCc1ccc(O)cc1)C(C)C)C(=O)N[C@@H](CC(=O)N(C)CCc1ccccc1)C(=O)N[C@@H](CC(=O)O)C(=O)N[C@@H](CC(C)C)C(=O)O` [Entry 20] (Desaminotyrosyl-VID(N(Me)CH2CH2Ph)DL-OH) was run?
A: 550 nM

Q: With `CC[C@H](C)[C@H](NC(=O)[C@@H](NC(=O)c1ccccc1-c1ccccc1)C(C)C)C(=O)N[C@@H](CC(=O)NCCc1ccccc1)C(=O)N[C@@H](CC(=O)O)C(=O)N[C@@H](CC(C)C)C(=O)O` [Entry 21, 2-Biphenylylcarbonyl-Val-Ile-Asp-(NHCH₂CH₂Ph)-Asp-Leu-OH] ({Benzoyl(2-Ph)}-VID(NHPhenethyl)DL-OH) as the molecule, how does the IC50 read?
A: 1250 nM

Q: For `CC[C@H](C)[C@H](NC(=O)[C@@H](NC(=O)c1ccccc1)C(C)C)C(=O)N[C@@H](CC(=O)NCCc1ccccc1)C(=O)N[C@@H](CC(=O)O)C(=O)N[C@@H](CC(C)C)C(=O)O` [Entry 22, Benzoyl-Val-Ile-Asp-(NHCH₂CH₂Ph)-Asp-Leu-OH] (Bz-VID(NHPhenethyl)DL-OH), which IC50 is on record?
A: 7600 nM

Q: `CC[C@H](C)[C@H](NC(=O)[C@@H](NC(C)=O)C(C)C)C(=O)N[C@@H](CC(=O)NCCc1ccccc1)C(=O)N[C@@H](CC(=O)O)C(=O)N[C@@H](CC(C)C)C(=O)O` [Entry 23, Ac-Val-Ile-Asp(NHCH₂CH₂Ph)-Asp-Leu-OH] (Ac-VID(NHPhenethyl)DL-OH) was tested. Which IC50 did it give?
A: 18000 nM

Q: For `CC[C@H](C)[C@H](NC(=O)[C@H](C(C)C)N(C)C(=O)CCC(C)C)C(=O)N[C@@H](CC(=O)N(CC)CC)C(=O)N[C@@H](CC(=O)O)C(=O)N[C@@H](CC(C)C)C(=O)O` [Entry 25, 4-Methylpentanoyl-N-Me-Val-Ile-Asp(NEt₂)-Asp-Leu-OH] ({Pentanoyl(4-Me)}-[NMeV]ID(NEt2)DL-OH), which IC50 is on record?
A: 500 nM

Q: With `CCN(CC)C(=O)C[C@H](NC(=O)[C@@H](NC(=O)[C@H](C(C)C)N(C)C(=O)CCc1ccccc1)[C@@H](C)O)C(=O)N[C@@H](CC(=O)O)C(=O)N[C@@H](CC(C)C)C(=O)O` [Entry 26, PhCH₂CH₂CO-N-Me-Val-Thr-Asp(NEt₂)-Asp-Leu-OH] (Hydrocinnamoyl-[NMeV]TD(NEt2)DL-OH) as the molecule, how does the IC50 read?
A: 300 nM

Q: Which IC50 does the source give for `CC[C@H](C)[C@H](NC(=O)[C@H](C(C)C)N(C)C(=O)CCc1ccccc1)C(=O)N[C@@H](CC(=O)N1CCOCC1)C(=O)N[C@@H](CC(=O)O)C(=O)N[C@@H](CC(C)C)C(=O)N(CC)CC` [Entry 27, PhCH₂CH₂CO-N-Me-Val-Ile-Asp(morpholino)-Asp-Leu-NEt₂] (Hydrocinnamoyl-[NMeV]ID(Morpholide)DL-NEt2) here?
A: 2600 nM

Q: Which IC50 does the source give for `CC[C@H](C)[C@H](NC(=O)[C@H](C(C)C)N(C)C(=O)CCc1ccc(O)c(O)c1)C(=O)N[C@@H](CC(=O)N1CCCC1)C(=O)N[C@@H](CC(=O)O)C(=O)N[C@@H](CC(C)C)C(=O)O` [Entry 28, (3,4-Dihydroxy-Ph)-CH₂CH₂CO-N-Me-Val-Ile-Asp(pyrrolidino)-Asp-Leu-OH] (Dihydrocaffeoyl-[NMeV]ID(Pyrrolidide)DL-OH) here?
A: 250 nM

— patent EP0411334B1, “Antiherpes pentapeptide derivatives having a substituted aspartic acid side chain” (BIO-MEGA/BOEHRINGER INGELHEIM RESEARCH INC., priority 1989, dated 1991)
